# Assay results published in paper PMC4750701, “Role of Mitochondrial RNA Polymerase in the Toxicity of Nucleotide Inhibitors of Hepatitis C Virus” (Antimicrobial Agents and Chemotherapy, 2016).
# Experiments:
# [1] = Bone marrow erythroid progenitor colony assay, 14 days; assay type: cell-based, human; conditions: human, read-out: Mean CC50 ± SD in Bone marrow cells Erythroid; for CC50 at 14 days: human bone marrow erythroid progenitors
# [2] = Bone marrow myeloid progenitor colony assay, 14 days; assay type: cell-based, human; conditions: human, read-out: Mean CC50 ± SD in Bone marrow cells Myeloid; for CC50 at 14 days: human bone marrow myeloid progenitors
# [3] = Cytotoxicity in MRC5 fibroblasts, 5-day treatment; conditions: human, MRC5 fibroblasts
# Description: (§1) All cells were cultured at 37°C in a 5% CO2 incubator with 90% humidity unless noted otherwise. […] All cells were treated with the various compounds for 5 days, except for human erythroid and myeloid progenitors, which were treated for 14 days. After the incubation period, cell viability was measured by the addition of CellTiter Glo viability reagents (Promega, Madison, WI). The luminescence signal was quantified on an Envision luminescence plate reader (PerkinElmer, Waltham, MA) after incubation of the reagents and cells for 10 min at room temperature. […] CC50 values were calculated as the average of the results of three or four independent experiments.
# Cell Culture and Cytotoxicity Studies
# (§2) The Huh-7 cells were maintained in growth medium containing Dulbecco's Modified Eagle
# (§3) Medium (DMEM, Cellgro) supplemented with 1% Nonessential Amino Acids (NEAA, Cellgro,
# (§4) Manassas, VA), 10% fetal bovine serum (FBS, HyClone, Logan, UT) and 1% Penicillin-
# (§5) streptomycin-glutamate (PSG, Invitrogen, Carlsbad, CA). The cells were passaged twice weekly
# (§6) and maintained at 90% confluence densities.
# (§7) The HepG2 cells were maintained in Eagle’s Minimum Essential Medium (EMEM) from ATCC
# (§8) (Manassas, VA) supplemented with 10% FBS, 100 units/mL penicillin and 100 µg/mL
# (§9) streptomycin (P/S) (Gibco). The cells were passaged twice weekly and maintained at 90%
# (§10) The PC-3 cells were maintained in Kaighn’s F12 medium (Gibco, Carlsbad, CA) supplemented
# (§11) with 10% FBS (HyClone, Logan, UT), 100 units/mL penicillin and 100 µg/mL streptomycin
# (§12) (P/S) (Gibco). The cells were passaged twice weekly and maintained at 90% confluence. Cells
# (§13) between passages 4 and 15 were used in the assays.
# (§14) The fibroblast cell line MRC-5 cell line derived from normal lung tissue, was purchased from
# (§15) ATCC (Manassas, VA) and cultured in Minimum Essential Medium (MEM) (Cellgro, Manassas,
# (§16) VA) supplemented with 10% FBS (HyClone, Logan, UT) and 1% PSG (Invitrogen). The cells
# (§17) were passaged twice weekly and maintained at 90% confluence densities.
# [4] = Cytotoxicity / ATP level in PC-3 cells, 5-day treatment; conditions: human, PC-3 cells
# Description: as §1
# Cell Culture and Cytotoxicity Studies
# as §2, §3, §4, §5, §6, §7, §8, §9, §10, §11, §12, §13, §14, §15, §16, §17
# Prostate cells (PC-3) = assay: as above; conditions: read-out: Mean CC50 ± SD causing General cellular toxicity: ATP level; PC-3 cells, 5 days
# Description: as §1
# Cell Culture and Cytotoxicity Studies
# as §2, §3, §4, §5, §6, §7, §8, §9, §10, §11, §12, §13, §14, §15, §16, §17
# [5] = Cytotoxicity in HepG2 (galactose) cells, 5-day treatment; conditions: human, HepG2 cells (galactose)
# Description: as §1
# Cell Culture and Cytotoxicity Studies
# as §2, §3, §4, §5, §6, §7, §8, §9, §10, §11, §12, §13, §14, §15, §16, §17
# [6] = Cytotoxicity in Huh7 cells, 5-day treatment (CellTiter Glo); conditions: human, Huh-7 cells
# PC-3 cells = assay: Active triphosphate metabolite in PC-3 cells (LC-MS/MS); assay type: in vitro ADME, human; conditions: 10 μM incubation, maximal concentration observed after 48 h during a 5-day incubation
# Description: The amount of nucleoside triphosphate was determined from three independent studies by ion-pairing liquid chromatography-tandem mass spectrometry (LC-MS/MS) as previously described ([16]). All compounds were incubated with the cells at 10 μM, except for BMS-986094 and NM107, which were incubated at 0.1 and 1 μM, respectively, due to the cytotoxicity observed at higher concentrations. Triphosphate concentrations for BMS-986094 and 2′CMeC were applied at doses normalized to the concentrations anticipated after a 10 μM incubation for comparison with the other NI. The reported TP levels are the maximal concentrations observed after 48 h during a 5-day incubation.
# [7] = Chronic toxicology studies in rats; assay type: in vivo; conditions: up to 39 weeks
# Stimulated PBMCs = system: Stimulated PBMCs; parameters: method as in PMID 24419349; conditions: 5 days; read-out: Mean CC50 ± SD in PBMCs Stimulated; cited from earlier work
# [8] = system: human erythroid progenitors (bone marrow cells); conditions: read-out: Mean CC50 ± SD in Bone marrow cells Erythroid; 14 days; cited from earlier work
# [9] = system: human myeloid progenitors (bone marrow cells); conditions: read-out: Mean CC50 ± SD in Bone marrow cells Myeloid; 14 days; cited from earlier work
# RNA PolIII = molecular target: T1, RNA PolIII (Homo sapiens, UniProt O14802+Q9NW08); assay: RNA PolIII inhibition assay; assay type: biochemical; conditions: competing NTP 100 μM CTP and GTP, 500 μM ATP; read-out: Mean IC50 ± SD for RNA PolIII
# T1 construct: complexes were isolated from rat NSN1 cells and HeLa cells, respectively; made in house; host or cells: HeLa cells expressing a FLAG-tagged Pol III subunit
# Text: Human DNA polymerase alpha, isolated from HeLa cell extracts, was from CHIMERx (Madison, WI). Recombinant human DNA polymerase beta, expressed in E. coli, was a gift from Zucai Suo at The Ohio State University. Recombinant human DNA polymerase gamma (including both the large subunit and the small subunit) was cloned, expressed, and purified from insect cells by Gilead Sciences (Foster City, CA) ([13]). RNA PolII was purchased as part of the HeLaScribe nuclear extract in vitro transcription system kit from Promega (Madison, WI). The recombinant human PolRMT and the transcription factors mitochondrial transcription factor A (mtTFA) and B2 (mtTFB2) were purchased from Enzymax (Lexington, KY). FLAG epitope-tagged RNA PolI and PolIII complexes were isolated from rat NSN1 cells and HeLa cells, respectively ([17], [18]). The inhibition of DNA polymerases alpha, beta, and gamma, PolRMT, and PolII and the rate of single-nucleotide incorporation by PolRMT have been described previously in detail ([12], [13], [19]). Inhibition of RNA PolI and PolIII was studied using published methods ([20], [21]). All concentrations were final unless noted otherwise. For the RNA PolI inhibition assay, a reaction mixture containing 50 mM HEPES (pH 7.9), 20% glycerol, 100 mM KCl, 1 mM dithiothreitol (DTT), 50 μg/ml calf thymus DNA, 4 mM MgCl2, 5 or 80 μM UTP (0.25 μl of [5,6-^3H]UTP, >25 Ci/mmol; PerkinElmer), 1 mM noncompeting NTP, competing NTP (5 μM for GTP, CTP, and UTP and 25 μM for ATP), and various concentrations (0 to 500 μM) of NTP analogs was preincubated at 30°C for 5 min. […] After incubation at 30°C for 20 min to 1 h, the reactions were terminated by pipetting the mixtures onto DEAE-cellulose discs (DE81; Whatman), and the products analyzed as described previously ([20], [21]).
# The RNA PolIII inhibition assay was conducted in a similar manner, except that the concentrations of the competing NTP were modified to 100 μM for CTP and GTP and 500 μM for ATP to compensate for the low assay signal at lower NTP concentrations.
# [10] = system: mitochondrial DNA-encoded cytochrome c oxidase (COX-1); assay: Mitochondrial protein synthesis assay (COX-1, MitoBiogenesis in-cell ELISA) in PC-3 cells; assay type: cell-based, human; conditions: PC-3 cells; for selectivity of effect on COX-1 versus SDH-A and ATP levels: 5-day treatments
# How it was run: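 PC-3 cells were exposed to compound for 5 days. Protein levels of nuclear-encoded SDH-A and mitochondrial-encoded COX-1 were then quantified by in-cell ELISA (quantitative immunocytochemistry).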
# [11] = system: mitochondrial spare respiratory capacity in PC-3 cells; assay: Oxygen consumption rate / spare respiratory capacity in PC-3 cells; conditions: PC-3 cells, 3-day treatments
# Description: Mitochondrial respiration was monitored by measuring the rate of oxygen consumption (OCR) of PC-3 cells after 3-day treatments with the compounds, using a Seahorse extracellular flux analyzer (XF^e-96) based on published protocols ([22][–][24]). The optimal cell seeding was determined by measuring the basal OCR of PC-3 cells that were seeded at different densities of 2.5 × 10^3, 5 × 10^3, 7.5 × 10^3, and 10 × 10^3 cells/well in XF 96-well plates (Seahorse Bioscience, North Billerica, MA) and incubated with 0.5% dimethyl sulfoxide (DMSO) for 3 days. […] Each reagent in the Mito Stress test kit (Seahorse Biosciences), i.e., ATP synthase inhibitor oligomycin, mitochondrial uncoupler carbonyl cyanide-4-(trifluoromethoxy)phenylhydrazone (FCCP), and a fixed-ratio mixture of the mitochondrial complex I (NADH dehydrogenase) inhibitor rotenone and the complex III (CoQH2-cytochrome c reductase) inhibitor antimycin A, was titrated. The lowest concentration that reached the maximal effect was chosen for each reagent. The OCR signals were normalized by cell numbers using DNA content determined by Hoechst's stain as described below.
# PC-3 cells were seeded at a density of 5 × 10^3 cells/well in XF 96-well plates and incubated with the compounds for 3 days. On the day of the assay, the cell medium was replaced with XF assay medium (pH 7.4) containing 10 mM glucose and 1 mM freshly prepared pyruvate. Mitochondrial respiration was monitored by measuring OCR on a Seahorse extracellular flux analyzer (XF^e-96). All concentrations listed are the final concentration after mixing unless noted otherwise. […] Spare respiratory capacity was obtained by subtracting the rate of basal respiration from the rate of maximal respiration.
# The cells were lysed by freezing at −80°C for >2 h. […] In parallel, another set of cells was treated with the compounds for 3 days and the ATP levels were measured using CellTiter Glo viability reagents (Promega, Madison, WI).
# HCV replicon = system: HCV replicon; parameters: method as in PMID 21357300, PMID 21060109; conditions: cited from earlier work
# [12] = Spare respiratory capacity in primary rat cardiomyocytes; conditions: Sprague Dawley, rat, primary rat neonatal cardiomyocytes
# Description: (§18) Primary rat neonatal cardiomyocytes were isolated from 3-day-old Sprague Dawley rat pups as described previously ([14]).
# (§19) Mitochondrial respiration was monitored by measuring the rate of oxygen consumption (OCR) of PC-3 cells after 3-day treatments with the compounds, using a Seahorse extracellular flux analyzer (XF^e-96) based on published protocols ([22][–][24]). The optimal cell seeding was determined by measuring the basal OCR of PC-3 cells that were seeded at different densities of 2.5 × 10^3, 5 × 10^3, 7.5 × 10^3, and 10 × 10^3 cells/well in XF 96-well plates (Seahorse Bioscience, North Billerica, MA) and incubated with 0.5% dimethyl sulfoxide (DMSO) for 3 days. […] Each reagent in the Mito Stress test kit (Seahorse Biosciences), i.e., ATP synthase inhibitor oligomycin, mitochondrial uncoupler carbonyl cyanide-4-(trifluoromethoxy)phenylhydrazone (FCCP), and a fixed-ratio mixture of the mitochondrial complex I (NADH dehydrogenase) inhibitor rotenone and the complex III (CoQH2-cytochrome c reductase) inhibitor antimycin A, was titrated. […] The OCR signals were normalized by cell numbers using DNA content determined by Hoechst's stain as described below.
# (§20) PC-3 cells were seeded at a density of 5 × 10^3 cells/well in XF 96-well plates and incubated with the compounds for 3 days. […] Mitochondrial respiration was monitored by measuring OCR on a Seahorse extracellular flux analyzer (XF^e-96). […]
# [13] = system: mitochondrial respiration in primary rat cardiomyocytes; assay: as above; conditions: primary rat cardiomyocytes, 3-day treatments
# Description: as §18, §19, §20
SMILES,CC50 at 14 days [1] [µM],CC50 at 14 days [2] [µM],CC50 at 5 days [3] [µM],CC50 at 5 days [4] [µM],CC50 (Prostate cells (PC-3)) [µM],CC50 at 5 days [5] [µM],CC50 at 5 days [6] [µM],further results
CCOc1nc(N)nc2c1ncn2[C@@H]1O[C@@H]2COP(=O)(OC(C)C)O[C@H]2[C@@]1(C)F (stereo partly shown) [PSI-938],> 100,> 100,> 89,> 100,> 100,> 89,> 89,–
CC(C)OC(=O)[C@H](C)N[P@](=O)(OC[C@H]1O[C@@](C#N)(c2ccc3c(N)ncnn23)[C@](C)(O)[C@@H]1OC(=O)C(C)C)Oc1ccccc1 [GS-6620],–,–,–,–,–,–,–,Mean TP concn ± SD (PC-3 cells): BLQ; effects during chronic toxicology studies [7]: did not show; CC50 (Stimulated PBMCs): > 100 µM; CC50 [8]: 15 ± 7 µM; CC50 [9]: 3.1 ± 2.6 µM
"C[C@@]1(O)[C@H](O)[C@@H](CO)O[C@H]1n1ccc(N)nc1=O [2′CMeC, 2′-C-methyl (2′CMe) cytidine]",99 ± 18,76 ± 16,69 ± 1,49 ± 18,–,> 89,> 89,–
C[C@@]1(O)[C@H](O)[C@@H](COP(=O)(O)OP(=O)(O)OP(=O)(O)O)O[C@H]1n1cnc2c(=O)[nH]c(N)nc21 [2′CMeGTP],–,–,–,–,–,–,–,IC50 (RNA PolIII): > 500 µM
CC(C)OC(=O)[C@H](C)N[P@](=O)(OC[C@H]1O[C@@H](n2ccc(=O)[nH]c2=O)[C@](C)(F)[C@@H]1O)Oc1ccccc1 [Sofosbuvir],–,–,–,–,> 100,–,–,CC50 [8]: > 100 µM; CC50 [9]: > 100 µM
"[N-]=[N+]=N[C@]1(CO)O[C@@H](n2ccc(N)nc2=O)[C@H](O)[C@@H]1O [4′-AzidoC, 4′-azido cytidine]",> 100,108 ± 12,> 89,30 ± 6,–,> 89,> 89,selectivity of effect on COX-1 versus SDH-A and ATP levels [10]: selective inhibition of COX-1 synthesis; selectivity of effect on spare respiratory capacity versus DNA and ATP levels [11]: selective inhibition of mitochondrial respiration
COc1nc(N)nc2c1ncn2[C@@H]1O[C@H](COP(=O)(N[C@@H](C)C(=O)OCC(C)(C)C)Oc2cccc3ccccc23)[C@@H](O)[C@@]1(C)O (stereo partly shown) [BMS-986094],–,–,–,–,–,–,–,"CC50 [1]: 4.5 ± 1.5 µM; CC50 [2]: 2.6 ± 0.5 µM; potentiation of mitochondrial and cellular toxicity by coincubation with RBV ([10]; 5-day treatment, RBV 10 μM): 3- to 4 fold; selectivity of effect on COX-1 versus SDH-A and ATP levels [10]: selective inhibition of COX-1 synthesis; fold more potent than IDX184 against the HCV replicon (HCV replicon): 30- to 60 fold; CC50 at 3 days [12]: 0.43 ± 0.14 µM; selectivity of effect on spare respiratory capacity versus DNA and ATP levels [13]: selective inhibition of mitochondrial respiration; selectivity of effect on spare respiratory capacity versus DNA and ATP levels [11]: selective inhibition of mitochondrial respiration"
C[C@@]1(F)[C@H](O)[C@@H](CO)O[C@H]1n1ccc(N)nc1=O [PSI-6130],–,–,> 89,> 100,> 100,> 89,> 89,–
